From US20260041677A1, “COMPOSITIONS AND METHODS FOR TREATING ADENOID CYSTIC CARCINOMA” (ELEVAR THERAPEUTICS, INC., priority 2022, published 2026)
Several values for one entry are separate records, joined by “and”; a condition that tells them apart may be missing. Equal values may be shown once.

Tested on: recurrent or metastatic (R/M) adenoid cystic carcinoma (ACC)
Assay: Phase 2 single-arm study of rivoceranib in R/M ACC: response, DoR, PFS, TTP per RECIST V1.1
Format: in vivo, human
Conditions: for estimated PFS rate at 9 months: efficacy evaluable
Source text: Overall design: An ongoing Phase 2, multicenter, open-label, single-arm study was designed to evaluate the efficacy and safety of rivoceranib in patients with recurrent or metastatic (R/M) adenoid cystic carcinoma (ACC) of all anatomic sites of origin. The study was composed of an initial screening phase (up to 28 days), a treatment phase, and a follow-up phase.
Objectives: Primary objectives were to evaluate safety & tolerability, efficacy by objective response rate (ORR), best overall response (BOR), time to response, duration of response, disease control rate, and duration of disease control. Secondary objectives were to evaluate efficacy as measured by overall survival, progression-free survival and event-free survival. The primary efficacy endpoint was the ORR, defined as the proportion of patients who achieved confirmed complete response (CR) or partial response (PR) per Response Evaluation Criteria in Solid Tumors (RECIST) Version 1.1 (V1.1). The secondary efficacy endpoints were duration of response (DoR) assessed by the investigator and a blinded independent review committee (BIRC), progression-free survival (PFS) assessed at 6 months, 12 months, and 2 years by investigator and BIRC, Time to Progression (TTP) assessed by investigator and BIRC, and overall survival (OS) assessed at 1 and 2 years. Exploratory efficacy endpoints include ORR per CHOI response criteria (based on the journal article, Choi et al., Correlation of computed tomography and positron emission tomography in patients with metastatic gastrointestinal stromal tumor treated at a single institution with imatinib mesylate: proposal of new computed tomography response criteria. J Clin Oncol. 2007; 25(13): 1753-1759) by a blinded independent review […] (BIRC) and disease control rate (DCR) per RECIST V1.1 by Investigator and BIRC. Except for CHOI response criteria, all response endpoints were assessed per RECIST V1.1 by Investigator and BIRC.
Patients: The study was conducted at 11 study sites in the USA and South Korea. A total of 80 patients were enrolled and received at least 1 dose of study drug (rivoceranib). Fifty-three patients were enrolled in the USA and 27 patients were enrolled in Korea. Eligible patients were 18 years or older and were required to have histologically or cytologically confirmed R/M ACC of any anatomic location not amenable to curative surgery or radiotherapy. Due to the indolent nature of the disease, patients were required to have evidence of disease progression by RECIST V1.1 within the 6 months prior to study entry, evidenced by: ≥20% increase in radiologically or clinically measurable lesions or appearance of new lesions. Patients were required to have at least 1 measurable target lesion by RECIST V1.1. There were no restrictions on prior systemic therapies. Patients were permitted to have prior VEGFR TKI exposure if dosage was discontinued within 5 half-lives prior to rivoceranib treatment. The patients were permitted if they have an Eastern Cooperative Oncology Group (ECOG) performance status of 0 or 1. Patients with treated central nervous system metastases were permitted if they were stable for four weeks prior to study treatment. Eligible patients had documented primary diagnosis of solid tumor cancer of ACC for which anti-VEGFR-2 targeted therapy could be applicable. The majority of patients had primary tumors in the major (33.8%) or minor (58.8%) salivary glands; 6 patients (7.5%) had primary tumors in other locations: lung, breast, trachea, Cowper's gland, intracranial temporal lobe and lymph node. Median time from original ACC diagnosis was 69.62 months. The majority of patients (92.5%) had metastatic disease.
Dose determination: Enrolled patients initiated treatment with rivoceranib 700 mg daily (QD). Up to 3 levels of dose reduction for toxicity were permitted: 500 mg QD, 300 mg QD and 200 mg QD. Patients received treatment until disease progression, unacceptable toxicity, death or withdrawal of consent to treatment. […]

[1] = RECIST V1.1, BIRC, 700 mg QD start
[2] = RECIST V1.1, BIRC, Total N = 73, 700 mg QD start
[3] = RECIST V1.1, BIRC, Total N = 73, Kaplan-Meier, 700 mg QD start
[4] = RECIST V1.1, BIRC, VEGFRi-naïve N = 60, 700 mg QD start
[5] = RECIST V1.1, BIRC, VEGFRi-naïve N = 60, Kaplan-Meier, 700 mg QD start
[6] = RECIST V1.1, BIRC, VEGFRi-treated N = 13, 700 mg QD start
[7] = RECIST V1.1, BIRC, VEGFRi-treated N = 13, Kaplan-Meier, 700 mg QD start
[8] = RECIST V1.1, Investigator, 700 mg QD start
[9] = RECIST V1.1, Investigator, Systemic therapy-naïve N = 29, 700 mg QD start
[10] = RECIST V1.1, Investigator, Systemic therapy-treated N = 44, 700 mg QD start
[11] = RECIST V1.1, Investigator, Total N = 73, 700 mg QD start
[12] = RECIST V1.1, Investigator, Total N = 73, Kaplan-Meier, 700 mg QD start
[13] = RECIST V1.1, Investigator, VEGFRi-naïve N = 60, 700 mg QD start
[14] = RECIST V1.1, Investigator, VEGFRi-naïve N = 60, Kaplan-Meier, 700 mg QD start
[15] = RECIST V1.1, Investigator, VEGFRi-treated N = 13, 700 mg QD start
[16] = RECIST V1.1, Investigator, patients with ≥20% pre-study increase in lesions, N = 51
[17] = confirmed objective response by Investigator
[18] = within the 19.5-month follow-up, N = 80

N#CC1(c2ccc(NC(=O)c3cccnc3NCc3ccncc3)cc2)CCCC1 [Rivoceranib, N-[4-(1-cyanocyclopentyl)phenyl]-2-{[(pyridin-4-yl)methyl]amino}pyridine-3-carboxamide]
remaining (non-ORR) patients who had a tumor size reduction (700 mg QD start): about 85%
median PFS (Kaplan-Meier, patients previously treated with systemic therapy, 700 mg QD start): 8.9 months
median PFS (Kaplan-Meier, patients without any prior systemic therapy, 700 mg QD start): 13.7 months
ORR based on patients assessed as responders by either Investigator or BIRC (RECIST V1.1, 15 out of 73 patients, 700 mg QD start): 20.5%
estimated TTP rate at 6 months [1]: 80.7%
estimated TTP rate at 9 months [1]: 57.3%
estimated TTP rate at 12 months [1]: 41%
BOR: Complete Response [2]: 0%
BOR: Not Evaluable [2]: 1 (1.4) %
BOR: Partial Response [2]: 7 (9.6) %
BOR: Progressive Disease [2]: 5.5% and 4 (5.5) %
BOR: Stable Disease [2]: 61 (83.6) %
DCR (disease control rate, CR, PR or SD ≥3 months) [2]: 65.8% and 64.4% and 48 (65.8) %
Median TTP (95% CI) [2]: 9.3 (8.5-13.6) months
ORR (objective response rate) [2]: 9.6% and 7 (9.6) %
PFS landmark 6-months, % (95% CI) [2]: 80.8 (68.5-88.6) %
PFS landmark 12-months, % (95% CI) [2]: 38.2 (25.0-51.3) %
DoR 25th percentile [3]: 5.5 months
DoR 75th percentile [3]: 8.3 months
DoR Median (95% CI) [3]: 7.2 months and 7.2 (3.5, 8.4) months
Median PFS (95% CI) [3]: 9.2 months and 9.2 (8.0, 12.9) months
BOR: Complete Response [4]: 0%
BOR: Not Evaluable [4]: 1 (1.7) %
BOR: Partial Response [4]: 5 (8.3) %
BOR: Progressive Disease [4]: 3 (5.0) %
BOR: Stable Disease [4]: 51 (85) %
DCR (disease control rate, CR, PR or SD ≥3 months) [4]: 39 (65.0) %
Median PFS (95% CI) [4]: 9.3 (8.0-13.7) months
Median TTP (95% CI) [4]: 10.8 (8.5-13.8) months
ORR (objective response rate) [4]: 8.5% and 5 (8.3) %
PFS landmark 6-months, % (95% CI) [4]: 80.3 (66.3-88.9) %
PFS landmark 12-months, % (95% CI) [4]: 40.4 (25.6-54.6) %
DoR 25th percentile [5]: 5.4 months
DoR 75th percentile [5]: 8.3 months
BOR: Complete Response [6]: 0%
BOR: Not Evaluable [6]: 0%
BOR: Partial Response [6]: 2 (15.4) %
BOR: Progressive Disease [6]: 1 (7.7) %
BOR: Stable Disease [6]: 10 (76.9) %
DCR (disease control rate, CR, PR or SD ≥3 months) [6]: 9 (69.2) %
Median PFS (95% CI) [6]: 8.9 (5.3-12.9) months
Median TTP (95% CI) [6]: 8.9 (5.3-12.9) months
PFS landmark 6-months, % (95% CI) [6]: 83.1 (47.2-95.5) %
PFS landmark 12-months, % (95% CI) [6]: 26.0 (4.3-56.2) %
DoR 25th percentile [7]: 5.5 months
DoR 75th percentile [7]: 7.1 months
DoR Median (95% CI) [7]: 6.3 (5.5, 7.1) months
estimated PFS rate at 9 months [1]: 53.5%
estimated TTP rate at 6 months [8]: 76.2%
estimated TTP rate at 9 months [8]: 57.0%
estimated TTP rate at 12 months [8]: 43.7%
Median time to response (RECIST V1.1, Investigator, 11 responders): 57.0 days
BOR: Complete Response [9]: 0%
BOR: Not Evaluable [9]: 0%
BOR: Partial Response [9]: (20.7) %
BOR: Progressive Disease [9]: (10.3) %
BOR: Stable Disease [9]: (69.0) %
DoR 25th percentile [9]: 7.4 months
DoR 75th percentile [9]: 14.9 months
DoR Median [9]: 13.5 months
BOR: Complete Response [10]: 0%
BOR: Not Evaluable [10]: 0%
BOR: Partial Response [10]: (11.4) %
BOR: Progressive Disease [10]: (11.4) %
BOR: Stable Disease [10]: (77.3) %
DoR 25th percentile [10]: 14.6 months
DoR 75th percentile [10]: 17.3 months
DoR Median [10]: 17.3 months
BOR: Complete Response [11]: 0%
BOR: Not Evaluable [11]: 0%
Median TTP (95% CI) [11]: 9.1 (8.5-13.8) months
PFS landmark 6-months, % (95% CI) [11]: 76.3 (64.2-84.8) %
PFS landmark 12-months, % (95% CI) [11]: 39.7 (27.4-51.6) %
DoR 25th percentile [12]: 11.9 months
DoR 75th percentile [12]: 17.3 months
DoR Median (95% CI) [12]: 14.9 months and 14.9 (4.9, 17.3) months
Median PFS (95% CI) [12]: 9.0 (7.5-12.8) months
BOR: Complete Response [13]: 0%
BOR: Not Evaluable [13]: 0%
BOR: Partial Response [13]: 11 (18.3) %
BOR: Progressive Disease [13]: 6 (10.0) %
BOR: Stable Disease [13]: 43 (71.7) %
DCR (disease control rate, CR, PR or SD ≥3 months) [13]: 37 (61.7) %
Median PFS (95% CI) [13]: 9.0 (7.3-12.8) months
Median TTP (95% CI) [13]: 9.0 (7.3-13.5) months
ORR (objective response rate) [13]: 11 (18.3) %
PFS landmark 6-months, % (95% CI) [13]: 74.5 (60.7-84.1) %
PFS landmark 12-months, % (95% CI) [13]: 38.7 (25.5-51.8) %
DoR 25th percentile [14]: 11.9 months
DoR 75th percentile [14]: 17.3 months
DoR Median (95% CI) [14]: 14.9 (4.9, 17.3) months
BOR: Complete Response [15]: 0%
BOR: Not Evaluable [15]: 0%
BOR: Partial Response [15]: 0%
BOR: Progressive Disease [15]: 2 (15.4) %
BOR: Stable Disease [15]: 11 (84.6) %
DCR (disease control rate, CR, PR or SD ≥3 months) [15]: 10 (76.9) %
Median PFS (95% CI) [15]: 10.6 (7.1-17.7) months
Median TTP (95% CI) [15]: 16.4 (8.9-19.1) months
ORR (objective response rate) [15]: 0%
PFS landmark 6-months, % (95% CI) [15]: 84.6 (51.2-95.9) %
PFS landmark 12-months, % (95% CI) [15]: 43.0 (13.8-69.8) %
estimated PFS rate at 9 months [8]: 53.6%
Maximum Change in SOT During the first 6 Months on Treatment with Rivoceranib, Mean [16]: −9.9 mm
Maximum Change in SOT During the first 6 Months on Treatment with Rivoceranib, Median [16]: −7.0 mm
Maximum Change in SOT at Any Time on Treatment, Mean [16]: −10.4 mm
Maximum Change in SOT at Any Time on Treatment, Median [16]: −8.0 mm
patients with initial response observed at 100 mg [17]: 1 patient
patients with initial response observed at 200 mg [17]: 1.3%
patients with initial response observed at 300 mg [17]: 4.1%
patients with initial response observed at 500 mg [17]: 5.5%
patients with initial response observed at 700 mg [17]: 2.7%
patients who died due to disease progression or cancer despite treatment [18]: ≥ 21.3%
patients who had disease progression despite treatment [18]: 48.5%
